The source of these data is patent US20030013136A1, “Human KCR1 regulation of HERG potassium channel block” (priority 2000, published 2003).

One series concerns the target HERG (Homo sapiens, UniProt Q12809). The conditions noted are these: 20 min. Here is the method: (§1) The rat KCR1 cDNA was provided by Dr. Haruhiro Higashida, Kanazawa University, Japan. […] MiRP1 cDNA was provided by Dr. Steve Goldstein, (Yale University) in vector pCl-neo (Promega of Madison, Wis.).
(§2) Chinese hamster ovary K1 (CHO-K1) cells were obtained from the American Type Culture Collection (Rockville, Md.) and cultured in Ham's F-12 media (Gibco-BRL of Grand Island, N.Y.) supplemented with 10% fetal bovine serum and 1% pen-strep in a humidified, 5% CO2 incubator at 37° C. CHO-K1 cells were transiently transfected using the Lipofectamine transfection reagents and method (Gibco-BRL). When studying HERG alone or HERG+MiRP1, cells were cotransfected with pGFP-IRS (without KCR1). For experiments examining HERG+KCR1, or HERG+KCR1+MiRP1, GFP expression was obtained via the KCR1-containing pGFP-IRS plasmid. In all cases, cells displaying green fluorescence 48 to 72 hours after transfection were subjected to electrophysiologic analysis.
(§3) Potassium currents were recorded at room temperature (20-22° C.) using the whole-cell patch clamp technique. […] Drug effects were recorded in cells following a pre-drug period where control data were obtained (during pulsing), and a 4 minute drug wash-in period throughout which the cell was held at −80 mV.

The target in another series is HERG+KCR1 (Homo sapiens, UniProt Q12809). The conditions noted are these: 20 min. Here is the method: as §1, §2, §3
In series [1] the target is HERG/MiRP1 complex (human). Description: cell-based or functional assay.
Sequence of HERG/MiRP1 complex (human) (A5H1P7 whole entry, one chain of several): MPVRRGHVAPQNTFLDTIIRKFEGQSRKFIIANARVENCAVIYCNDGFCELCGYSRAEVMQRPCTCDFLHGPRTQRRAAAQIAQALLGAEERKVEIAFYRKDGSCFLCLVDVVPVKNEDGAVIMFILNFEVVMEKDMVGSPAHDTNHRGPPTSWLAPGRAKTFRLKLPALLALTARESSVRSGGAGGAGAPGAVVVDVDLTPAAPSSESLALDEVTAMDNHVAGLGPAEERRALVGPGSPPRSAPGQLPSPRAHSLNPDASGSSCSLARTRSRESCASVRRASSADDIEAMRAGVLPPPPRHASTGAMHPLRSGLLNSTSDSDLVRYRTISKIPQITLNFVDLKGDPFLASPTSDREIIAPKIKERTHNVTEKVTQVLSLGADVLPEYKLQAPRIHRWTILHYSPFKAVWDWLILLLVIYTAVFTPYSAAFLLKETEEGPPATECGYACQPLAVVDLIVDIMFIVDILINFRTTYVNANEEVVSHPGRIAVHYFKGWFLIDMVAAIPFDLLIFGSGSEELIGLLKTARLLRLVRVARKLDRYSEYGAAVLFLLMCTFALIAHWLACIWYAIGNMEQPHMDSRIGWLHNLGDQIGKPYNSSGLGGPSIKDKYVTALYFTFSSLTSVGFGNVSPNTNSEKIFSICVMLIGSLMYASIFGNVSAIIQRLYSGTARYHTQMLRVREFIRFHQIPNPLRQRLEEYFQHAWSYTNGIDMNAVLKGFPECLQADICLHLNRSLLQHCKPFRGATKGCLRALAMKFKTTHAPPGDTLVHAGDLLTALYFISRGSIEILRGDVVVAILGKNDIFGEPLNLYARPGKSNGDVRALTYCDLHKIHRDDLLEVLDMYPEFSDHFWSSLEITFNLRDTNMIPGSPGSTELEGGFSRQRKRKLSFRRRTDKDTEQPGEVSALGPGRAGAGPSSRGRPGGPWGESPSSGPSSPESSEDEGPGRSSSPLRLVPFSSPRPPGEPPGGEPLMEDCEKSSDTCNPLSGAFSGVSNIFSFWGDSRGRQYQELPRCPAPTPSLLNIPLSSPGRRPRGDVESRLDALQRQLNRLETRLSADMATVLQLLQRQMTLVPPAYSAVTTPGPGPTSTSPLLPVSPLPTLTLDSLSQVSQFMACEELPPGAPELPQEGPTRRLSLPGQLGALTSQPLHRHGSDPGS

Sequence of HERG (Q12809 whole entry): as the sequence (A5H1P7 whole entry, one chain of several) above
Sequence of HERG+KCR1 (Q12809 whole entry): as the sequence (A5H1P7 whole entry, one chain of several) above

`CC(C)NC[C@@H](O)c1ccc(NS(C)(=O)=O)cc1` [d-sotalol]: the “HERG tail current remaining, % of the pre-drug control” value is on record as 54±9% on HERG and 95±6% on HERG+KCR1.

In the case of rat KCR1 (from UniProt O88788 1-474), in series [1], the fast time constant of deactivation at -120 mV, HERG+KCR1+MiRP1 (whole-cell patch clamp, CHO-K1 cells) came out at 22.5 and the slow time constant of deactivation at -120 mV, HERG+KCR1+MiRP1 (whole-cell patch clamp, CHO-K1 cells) was 251.
